Patent publication US9187458B2, “Cyanoquinoline derivatives” (Tianjin Hemay Bio-Tech Co., LTD., priority 2010, dated 2015)
Blank lines part the entries; values can stand above or below the compound they belong to.

Assays:
BxPc-3 cells = assay: BxPc-3 Cell Growth Inhibition Test (MTT Assay); assay type: cell-based; settings: Homo sapiens, 72 h incubation
Description: BxPc-3 Cell Growth Inhibition Test (MTT Assay) Cell strains: BxPC-3 (human pancreatic cancer cell strains); Culture medium: 90% RPMI-1640+10% FBS; 1. A plate (10 cm) of cells in logarithmic growth phase normally cultured was collected; 2. The culture solution was sucked out. […] The plate was washed with 5 ml of PBS 1-2 times; 3. PBS was sucked out. 1.5 ml of 0.25% pancreatin was added to infiltrate the cells for 1 min; 4. The pancreatin was sucked out. The culture plate was placed in an incubator. Digestion was carried out for about 5 min at 37° C.; 5. 4.5 ml of complete culture solution was added to the culture plate to stop the digestion. The cells were carefully scoured with micropipette (1 ml) to give a uniform cell suspension. The suspension was implanted into a 96-well cell culture plate by 5000 cells/100 μl per well. The culture plate was incubated overnight under 5% CO2 at 37° C. In day 2, 100 μl of culture solution comprising a compound was added in each well, and further incubated for 72 h under 5% CO2 at 37° C. 6. The culture solution was sucked out; 7. 100 μl of serum-free culture solution containing 0.5 mg/ml MTT was added in each well, and incubated for 3 h; 8. The culture solution was carefully sucked out; 9. 100 μl of DMSO was added in each well and vibrated to dissolve; 10. OD values were determined at […]. 1. Calculation of Relative Inhibition Ratio The inhibition ratio of a compound on cell growth=(PC−n)/(PC−NC)×100% IC50: Concentration of a compound where inhibition ratio was 50%. IC50 values were fitted with Origin7.5.

MDA-MB-453 cells = assay: MDA-MB-453 Cell Growth Inhibition Test (SRB Assay); assay type: cell-based; settings: Homo sapiens, 72 h incubation
Description: MDA-MB-453 Cell Growth Inhibition Test (SRB Assay)
Cell strains: MDA-MB-453 (human breast cancer cell strains);
SRB: 0.4% (w/v) working solution was formulated with 1% glacial acetic acid, reserved at 4° C.; antitumor compounds; DMSO
Culture medium: 90% L15+10% FBS;
(§1) 1. A plate (10 cm) of cells in logarithmic growth phase normally cultured was collected;
2. The culture solution was sucked out. The plate was washed with 5 mL of PBS 1-2 times;
3. 1.5 mL of 0.25% pancreatin was added to the plate to infiltrate the cells;
4. The pancreatin was sucked out. The culture plate was placed in an incubator. Digestion was carried out for about 3 min at 37° C.;
5. 4 mL of complete culture solution was added to the culture plate to stop the digestion. The cells were carefully scoured with micropipette (1 ml) to give a uniform single cell suspension. The suspension was implanted into a 96-well cell culture plate by 7000 cells/100 μl per well. The culture plate was incubated overnight under 5% CO2 at 37° C. In day 2, 100 μl of culture solution comprising a compound was added in each well, and further incubated for 72 h under 5% CO2 at 37° C.;
6. The culture solution was sucked out. 100 uL of TCA fixed cells which were diluted to 10% were added to each well. The plate was kept in a refrigerator for 1 h at 4° C.
7. TCA stationary liquid was sucked out. […]
13. OD values were determined at […]. […]

BT-474 cells = assay: BT-474 Cell Growth Inhibition Test (SRB Assay); assay type: cell-based, human; settings: Homo sapiens, 70 h incubation
Method in brief: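 Human breast tumour BT-474 cells (1×10^5/ml seeding, overnight) exposed to compound 70 h at 37 °C, 5% CO2; TCA-fixed, SRB-stained, dye dissolved in 10 mM Tris and OD read at 570 nm. Inhibition ratio = (PC−n)/(PC−NC)×100%; IC50 is the concentration giving 50% inhibition, from fitted curves.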

SK-OV-3 cells = assay: SK-OV-3 Cell Growth Inhibition Test (MTT Assay); assay type: cell-based; settings: Homo sapiens, 72 h incubation
Description: SK-OV-3 Cell Growth Inhibition Test (MTT Assay)
Cell strains: SK-OV-3 (human ovarian cancer cell strains);
Culture medium: 90% McCoy's 5A+10% FBS;
as §1
(§2) 2. The culture solution was sucked out. The plate was washed with 5 ml of PBS 1-2 times;
(§3) 3. PBS was sucked out. 1.5 ml of 0.25% pancreatin was added to infiltrate the cells for 1 min;
4. The pancreatin was sucked out. The culture plate was placed in an incubator. Digestion was carried out for about 5 min at 37° C.;
(§4) 5. 4.5 ml of complete culture solution was added to the culture plate to stop the digestion.T the cells were carefully scoured with micropipette (1 ml) to give a uniform cell suspension. The suspension was implanted into a 96-well cell culture disc by 4000 cells/100 μl per well. The culture plate was incubated overnight under 5% CO2 at 37° C. In day 2, 100 μl of culture solution comprising a compound was added in each well, and further incubated for 72 h under 5% CO2 at 37° C.
(§5) 6. The culture solution was sucked out;
7. 100 μl of serum-free culture solution containing 0.5 mg/ml MTT was added in each well, and incubated for 3 h;
(§6) 8. The culture solution was carefully sucked out;
9. 100 μl of DMSO was added in each well and vibrated to dissolve;
(§7) 10. OD values were determined at 490 nM.
(§8) 1. Calculation of Relative Inhibition Ratio The inhibition ratio of a compound on cell growth=(PC−n)/(PC−NC)×100%
(§9) IC50: Concentration of a compound where inhibition ratio was 50%. IC50 values were fitted with Origin7.5.

NCI-H358 cells = assay: NCI-H358 Cell Growth Inhibition Test (MTT Assay); assay type: cell-based; settings: Homo sapiens, 72 h incubation
Description: NCI-H358 Cell Growth Inhibition Test (MTT Assay)
Cell strains: NCI-H358 (human non-small cell lung cancer cell strains);
as §1, §2, §3
4. The culture plate was placed in an incubator. Digestion was carried out for about 5 min at 37° C.;
as §4, with “3” for “4.5”, “digestion. Tthe” for “digestion.T the”, “plate” for “disc”, “10000” for “4000”, “[…]” for “μl”
as §5
7. 100 μA of serum-free culture solution containing 0.5 mg/ml MTT was added in each well, and incubated for 3 h;
as §6
9. 100 μA of DMSO was added in each well and vibrated to dissolve;
as §7, §8, §9

Structure (SMILES): CN1CCC(Oc2cc3ncc(C#N)c(Nc4ccc(Oc5ccccc5)nc4)c3cc2NC(=O)/C=C2/CCNC2)CC1 [Example 131, (E/Z)-N-(3-CYANO-7-(1-METHYLPIPERIDIN-4-YL-OXY)-4-(6-(PHENOXYPYRIDIN-3-YL-AMINO)QUINOLIN-6-YL)-2-(PYRROLIDIN-3-YLIDENE)ACETAMIDE]
IC50 (BxPc-3 cells): 306 nM

IC50 (MDA-MB-453 cells): 523 nM | IC50 (BT-474 cells): 108 nM | IC50 (SK-OV-3 cells): 312 nM
Structure (SMILES): C#Cc1cccc(Nc2c(C#N)cnc3cc(O[C@H]4CCOC4)c(NC(=O)/C=C/CN(C)CCOC)cc23)c1 [Example 189, (S,E)-N-(3-CYANO-4-(3-ETHYNYLPHENYLAMINO)-7-(TETRAHYDROFURAN-3-YL-OXY)QUINOLIN-6-YL)-4-(N-METHYLMETHOXYETHYLAMINO)-BUT-2-ENAMIDE]
inhibition at 1 µM (BT-474 cells; BT-474, 70 h, compound 1 μM, read-out: Growth Inhibition Ratio (%)): 85%

IC50 (NCI-H358 cells): 110 nM
Structure (SMILES): C#Cc1cccc(Nc2c(C#N)cnc3cc(O[C@H]4CCOC4)c(NC(=O)/C=C/CN(CCO)CCO)cc23)c1 [Example 188, (S,E)-N-(3-CYANO-4-(3-ETHYNYLPHENYLAMINO)-7-(TETRAHYDROFURAN-3-YL-OXY)QUINOLIN-6-YL)-4-(DIETHANOLAMINO)-BUT-2-ENAMIDE]
